# Measured values taken from patent publication EP0259782A1, “Naphthalene and indane derivatives, medicaments containing these compounds and processes for their preparation” (Dr. Karl Thomae GmbH, priority 1986, dated 1988).
# Experiments:
# Herzfrequenz an Ratten = assay: Effect on heart rate in anaesthetised rats; format: in vivo; details: rats anaesthetised with pentobarbital; dose 5,0 mg/kg injected into the Vena jugularis; 5 minutes after application; control heart rate 350-400 S/min; 2 rats per dose
# Procedure: Wirkung auf die Herzfrequenz an Ratten: Die Wirkung der zu untersuchenden Substanzen auf die Herzfrequenz wurde pro Dosis an 2 Ratten mit einem durchschnittlichen Gewicht von 250-300 g untersucht. Hierzu wurden die Ratten mit Pentobarbital (50 mg/kg i.p. und 10 mg/kg s.c.) narkotisiert. Die zu untersuchenden Substanzen […]ösung in die Vena jugularis injiziert (0,1 ml/100 g). Der Blutdruck wurde über in eine A. carotis eingebundene Kanüle gemessen und die Herzfrequenz wurde aus einem mit Nadelelektroden abgeleiteten EKG (II. oder III. Ableitung) registriert. Die Herzfrequenz der […] 350 und 400 Schlägen/Minuten (S/min).
# Mäusen = details: in vivo, iv, 10 mg/kg
# Text: Die erfindungsgemäß hergestellten Verbindungen weisen in therapeutischen Dosen keinerlei toxische Nebenwirkungen auf.
Compound,"Herzfrequenzsenkung, gemessen 5 Minuten nach Substanzapplikation (Herzfrequenz an Ratten) [S/min]",toxische Nebenwirkungen (Mäusen)
"COc1ccc(CCN(C)CCCC2CCc3cc(OC)c(OC)cc3C2)cc1OC.Cl (centres unmarked) [Substanz B, 6,7-Dimethoxy-2-[3-((2-(3,4-dimethoxyphenyl)-ethyl)-methylamino)-propyl]-1,2,3,4-tetrahydro-naphthalin-hydrochlorid]",150,
"COc1ccc(CCN(C)CCCC2Cc3cc(OC)c(OC)cc3C2O)cc1OC (centres unmarked) [Substanz C, 5,6-Dimethoxy-2-[3-((2-(3,4-dimethoxyphenyl)-ethyl)-methylamino)-propyl]-1-hydroxy-indan]",152,außer einer geringen Sedation keine toxischen Nebenwirkungen
"COc1ccc(CCN(C)CCCC2CCc3cc(OC)c(OC)cc3C2=O)cc1OC (centres unmarked) [Substanz A, 6,7-Dimethoxy-2-[3-((2-(3,4-dimethoxyphenyl)-ethyl)-methylamino)-propyl]-1-oxo-1,2,3,4-tetrahydro-naphthalin]",157,außer einer geringen Sedation keine toxischen Nebenwirkungen
